Measurements: patent US8188063B2, “Use of adenosine A2A modulators to treat spinal cord injury” (University of Virginia Patent Foundation, priority 2006, dated 2012)
Entries after “also recorded” stand apart in the source; their conditions may differ.

Key:
[1] = biological target: T1, recombinant mouse A3 receptors (Mus musculus, UniProt Q61618); assay: Radioligand competition binding to recombinant mouse A3 receptor (HEK293 membranes); conditions: high affinity conformational state, means ± SEM, at least six experiments, read-out: Binding affinity (Ki) A3R
T1 construct: expressed in transfected cells
T1 sequence (Q61618 1-319): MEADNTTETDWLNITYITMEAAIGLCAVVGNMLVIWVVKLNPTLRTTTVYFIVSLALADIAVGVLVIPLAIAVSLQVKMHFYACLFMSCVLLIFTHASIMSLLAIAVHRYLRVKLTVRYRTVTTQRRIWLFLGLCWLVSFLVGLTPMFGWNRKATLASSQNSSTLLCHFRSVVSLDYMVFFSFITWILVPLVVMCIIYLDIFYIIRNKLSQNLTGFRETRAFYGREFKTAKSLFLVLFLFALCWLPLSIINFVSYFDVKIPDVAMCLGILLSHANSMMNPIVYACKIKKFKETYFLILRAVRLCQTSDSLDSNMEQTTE
Description: Membranes from HEK293 cells stably expressing recombinant mouse A2ARs or A3Rs were used for competition binding assays with [^125I]N6-4-amino-3-iodobenzyladenosine for the A3AR or [^125I]2-[2-(4-amino-3-iodophenyl)ethylamino]adenosine for the A2AR as described previously (Lappas et al., 2005a). Radioligand binding experiments were performed with 25 μg of HEK293 cell membrane protein in a total volume of 0,1 ml of 10 MM HEPES with 1 mM EDTA (pH 7.4) supplemented with 2 Unit/ml adenosine deaminase and 5 mM MgCl2. Nonspecific binding was measured in the presence of 100 μM NECA. The incubation time was 120 min at room temperature. Membranes were filtered on Millipore MultiScreen 96-well filtration plates and washed three times with ice-cold buffer (10 mM Tris, 1 mM MgCl2, pH 7,4) using a Brandel 96-well plate washer. The data were fit to a four-parameter logistic equation. IC50 values were determined using GraphPad Prism, and Ki values calculated (Linden, 1982).
. It is important to note that unlike human receptors, in the mouse, the selectivity of all of these agonist compounds for the A2A over the A3 receptor is limited, and the administration of these compounds to mice is expected to produce some degree of A3 receptor activation. […]. Activation of the A3 receptor may exacerbate inflammation by enhancing the degranulation of rodent mast cells (Jin et al., 1997; Ramkumar et al., 1993, Reeves et al., 1997); although tissue protection by A3 receptor activation also has been noted (Rivo et al., 2004). […]

[2] = biological target: T2, recombinant mouse A2A receptors (Mus musculus, UniProt Q60613); assay: Radioligand competition binding to recombinant mouse A2A receptor (HEK293 membranes); conditions: for Ki: high affinity conformational state, recombinant mouse A2A receptor, means ± SEM, at least six experiments, read-out: Binding affinity (Ki) A2AR; for A3/A2A: ratio of Ki at mouse A3R to Ki at mouse A2AR
T2 construct: expressed in transfected cells
T2 sequence (Q60613 whole entry): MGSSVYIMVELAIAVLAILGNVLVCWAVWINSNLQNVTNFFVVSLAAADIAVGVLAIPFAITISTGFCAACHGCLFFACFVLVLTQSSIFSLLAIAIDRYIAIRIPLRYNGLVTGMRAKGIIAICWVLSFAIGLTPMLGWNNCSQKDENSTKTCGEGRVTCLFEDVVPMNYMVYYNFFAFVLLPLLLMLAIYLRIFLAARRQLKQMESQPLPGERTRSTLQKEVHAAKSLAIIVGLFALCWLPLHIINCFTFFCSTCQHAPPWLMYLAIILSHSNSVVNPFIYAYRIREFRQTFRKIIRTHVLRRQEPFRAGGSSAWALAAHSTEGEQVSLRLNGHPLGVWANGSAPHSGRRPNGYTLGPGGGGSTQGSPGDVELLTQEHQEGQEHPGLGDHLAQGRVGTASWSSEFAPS
Description: Nonspecific binding was measured in the presence of 100 μM NECA. The incubation time was 120 min at room temperature. Membranes were filtered on Millipore MultiScreen 96-well filtration plates and washed three times with ice-cold buffer (10 mM Tris, 1 mM MgCl2, pH 7,4) using a Brandel 96-well plate washer. The data were fit to a four-parameter logistic equation.

[3] = test system: spinal cord compression injury in bone marrow chimera mice; assay: Spinal cord compression injury in bone marrow chimera and A2AR KO mice, locomotor assessment; type: in vivo, mouse
Description: Female mice 7-9 weeks of age were irradiated twice with 600 Rads separated by 4 hours. Bone marrow donor mice 12 weeks of age were sacrificed by a lethal injection of sodium pentobarbital. Bone marrow cells were harvested from femurs and tibia by flushing with RPMI-1640 medium (Invitrogen Corporation, Grand Island, N.Y.) in the presence of 10% heat-inhibited fetal bovine serum (FBS). Connective tissue and debris were carefully removed by washing and centrifuging. Red blood cells were lysed by 1× ZAP-OGLOBIN® II lytic Reagent (Beckman Coulter, Miami, Fla.). Recipient mice were anesthetized intraperitoneally with a mixture of 100 mg/ml ketamine and 20 mg/ml xylazine in saline solution. An aliquot of approximately 2×10^6 cells in 200 μl RPMI-1640 with 10% FBS was injected intravenously through left or right jugular vein. BMT mice were used for experiments after 6 weeks. We have previously shown that this procedure results in efficient repopulation of BMDC cells to irradiated mice (Day et al., 2005).

[4] = test system: spinal cord white matter / myelin after compression injury; assay: Spinal cord histology and myelin quantification after compression injury; type: in vivo, mouse
Description: A section of spine between T10 and L1 was removed under anesthesia. The tissue was placed in 4.0% paraformaldehyde in phosphate buffered saline, pH 7.4, and rocked for 4 hours. The disc body, lamina, pedicle, spinous and transverse processes surrounding the cord were carefully removed and the cord trimmed to center the injured area in a 10 mm segment. After incubation at 4° C. overnight, tissues were washed in Dulbecco's phosphate buffered saline (PBS, pH 7.4) twice for 10 minutes, and transferred to cassettes in 70% ethanol for paraffin embedding. Five μm sections were collected at 500 μm intervals using a Leica RM2030 Rotary Microtome. Sections derived from the center of the 2 mm compression zone were stained with hematoxylin & eosin (HE) and eriochrome cyanine (EC) as described below. Slides were examined using an Olympus BX51 light microscope and photographed using an Olympus DP70 digital camera (4080×3072 pixels) with DP70-BSW-V1.2 Capture & Archiving Software.
Hematoxylin & Eosin (HE) Staining. Sections were deparaffinized at 37° C. twice each for 5 minutes in xylene, 100% ethanol, and 95% ethanol, then once for 5 minutes in 70% ethanol and twice for 5 minutes in dH2O. Slides were stained in filtered hematoxylin for 60 seconds and washed in tap water for 3 minutes, stained in Eosin Y for 30 seconds and washed in tap water for 3 minutes. After the slide was dehydrated to xylene, a coverslip was applied.
Eriochrome Cyanine (EC) Staining. The protocol for staining myelin was obtained from the NINDS Spinal Cord Injury Training Course 2004 (The Ohio State University, Columbus, Ohio) and used with minor modifications. […]
Spinal Cord Cross Sectional Area and Myelin Quantification. Total cross-sectional area was measured to determine the extent of spinal cord atrophy, Cross-sectional area stained with EC was calculated by image analysis to evaluate damage of the sagittal myelinated tracts. […] The loss in white matter of each sample was calculated as % of total area stained in respective areas of control samples.

[5] = biological target: recombinant human A2A receptors (Homo sapiens, UniProt P29274); conditions: recombinant human receptors (Rieger et al., 2001); cited from earlier work
recombinant human A2A receptors, sequence (P29274 whole entry): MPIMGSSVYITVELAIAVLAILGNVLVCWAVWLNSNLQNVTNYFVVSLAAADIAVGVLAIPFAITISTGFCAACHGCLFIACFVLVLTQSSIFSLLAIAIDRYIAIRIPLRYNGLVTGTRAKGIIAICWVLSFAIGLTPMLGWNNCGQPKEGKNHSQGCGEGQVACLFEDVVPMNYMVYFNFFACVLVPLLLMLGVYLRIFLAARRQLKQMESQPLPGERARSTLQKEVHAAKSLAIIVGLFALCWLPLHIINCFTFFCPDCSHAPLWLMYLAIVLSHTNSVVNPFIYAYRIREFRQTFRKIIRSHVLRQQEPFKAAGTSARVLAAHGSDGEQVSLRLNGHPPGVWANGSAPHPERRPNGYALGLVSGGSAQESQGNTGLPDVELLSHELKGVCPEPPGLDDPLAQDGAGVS

[6] = test system: spinal cord compression injury, locomotor function; assay: Spinal cord compression injury, locomotor assessment (mBBB); conditions: for locomotor function (mBBB score) after spinal cord compression: wild type mice, IP from 5 min before compression, twice daily 4 days, days 1-42, FIG. 2
Description: Briefly, mice were anesthetized with a mixture of ketamine and xylazine and placed on a heating pad in a stereotaxic apparatus. A laminectomy was performed at T12 and two adjustable forceps were applied to the vertebra between T11 to T13 to stabilize the spinal cord. Ischemic injury was produced by gently placing a 15 gram compression rod with 1 mm×2 mm rectangular surface onto the intact durra for 5 minutes. […] Injured mice were assessed on post-SCI days 1, 4, 7, 14, 28, and 42. Sham animals received a laminectomy without spinal cord compression. Following SCI, bladders were expressed twice daily until return of normal bladder function.
Animals that were able to walk and scored greater than 14 based on rat BBB scoring criteria were further evaluated based on their ability to traverse steel bars without slipping. Mice were placed on bars 500 mm in length and 3 mm in thickness with decreasing widths: 20 mm (score 16), 15 mm (score 17), 10 mm (score 18), 7 mm (score 19), and 5 mm (score 20). […] Scores obtained from left and right hind limbs were averaged.
Statistical Analysis: Statistical analyses were conducted using SAS version 9.1 (SAS Institute Inc, Cary, N.C.). A mixed model (SAS Proc Mixed) was applied to determine the effect of drug treatment over time. Both the experimental condition (mouse genotype and/or drug) and the day were set as categorical variables. An autoregressive correlation structure was assumed for repeated measures in the entire study.

[7] = test system: contusive spinal cord injury, locomotor function; assay: Contusive spinal cord injury, locomotor assessment (mouse BBB); conditions: FIG. 13; for protection from contusive injury in Rag1 KO mice compared to Rag1 KO vehicle: Rag1 KO mice lacking mature lymphocytes
Description: Female C57BL/6 wild type and Rag-1 KO mice lacking mature lymphocytes between 6-18 weeks of age were purchased from Jackson Laboratory (Bar Harbor, Me.). Adenosine 2A receptor gene deletion (A2AAR −/−, A2AAR knockout) mice were age-matched to their wild types with same genomic background (C57BL/6). Food and water were provided ad libitum before and after experiments. During the experiment period, animals were housed in a pathogen-free isolation barrier region with chip bedding.
Animals were subjected to comtusive spinal cord injury protocol. Briefly, mice were anesthetized with a mixture of ketamine and xylazine and placed on a heating pad in a stereotaxic apparatus. A laminectomy was performed at T12 and two adjustable forceps were applied to the vertebra between T11 to T13 to stabilize the spinal cord. Contusive spinal cord injury (SCI) was produced with an IH device (PSI, Lexington, Ky.) at a defined force from 30 to 100 Kdynes with a dwell time of 30 msec or 60 sec. […] Injured mice were assessed on days 1, 2, 3, 4, 7, 10, 14, 21, 28, 35, and 42 after injury. Sham animals (n=10) received a laminectomy without spinal cord compression. Following SCI, bladders were expressed twice daily until return of normal reflexive bladder function.
Statistical tests were performed using GraphPad™ Prism version 5 software (GraphPad Software, Inc., San Diego, Calif.). Differences in locomotor scores between groups was analyzed by two-way analysis of variance (ANOVA) employing Bonferroni post-tests for repeated measure comparisons. A P value <0.05 was considered to be significant.

CCNC(=O)C1OC(n2cnc3c(N)nc(C#CCC4CCC(C(=O)OC)CC4)nc32)C(O)C1O (stereo not drawn) [ATL146e, 4-{3-[6-Amino-9-(5-ethylcarbamoyl-3,4-dihydroxy-tetrahydro-furan-2-yl)-9H-purin-2-yl]-prop-2-ynyl}cyclo-hexanecarboxylic acid methyl ester]
Ki [1]: 3.3 ± 2 nM

CCNC(=O)[C@H]1O[C@@H](n2cnc3c(N)nc(C#CCC4CCN(C(=O)OC)CC4)nc32)[C@H](O)[C@@H]1O [ATL202, 4-{3-[6-amino-9-(5-ethyl-carbamoyl-3,4-dihydroxy-tetrahydro-furan-2-yl)-9H-purin-2-yl]-prop-2-ynyl}-piperidine-1-carboxylic acid methyl ester]
Ki [2]: 1.5 ± 0.55 nM
Ki [1]: 3.7 ± 0.4 nM

CCNC(=O)C1OC(n2cnc3c(N)nc(C#CCC4CCN(C(=O)OCC(C)C)CC4)nc32)C(O)C1O (stereo not drawn) [ATL210, 4-{3-[6-amino-9-(5-ethylcarbamoyl-3,4-dihydroxy-tetrahydro-furan-2-yl)-9H-purin-2-yl]-prop-2-ynyl}-piperidine-1-carboxylic acid isobutyl ester]
Ki [2]: 1.04 ± 0.26 nM
A3/A2A [2]: 5.2
Ki [1]: 5.4 ± 0.7 nM

COC(=O)N1CCC(CC#Cc2nc(N)c3ncn(C4OC(C(=O)NC5CC5)C(O)C4O)c3n2)CC1 (stereo not drawn) [ATL313, 4-{3-[6-amino-9-(5-cyclopropylcarbamoyl-3,4-dihydroxy-tetrahydro-furan-2-yl)-9H-purin-2-yl]-prop-2-ynyl}-piperidine-1-carboxylic acid methyl ester]
protection of locomotor function in mice lacking A2ARs on BMDC cells ([3]; KO/WT chimera or global A2AR KO, FIGS. 5B, 6): not KO/WT chimera; also recorded: not protected; also recorded: completely absent
protection of locomotor function in WT/KO chimera ([3]; WT marrow into A2AR KO recipients, FIGS. 5C, 6, 7): greatest protection
protection of locomotor function in mice with A2ARs on BMDC cells ([3]; WT, WT/WT and WT/KO mice, FIGS. 5, 6): protects WT/WT; also recorded: protected
morphological manifestations of long-term spinal cord injury (H&E, EC) ([4]; 6 nmol/kg, day 42, FIG. 3): substantially reversed
spared myelin (EC-stained area, normalized to sham/uninjured) ([4]; 6 nmol/kg, day 42 after compression, vehicle 61.0%±3.6%): 81.9±0.9%
average ratio of spinal cord white area (injured/sham) ([4]; day 42, N=3-4, P<0.05, vehicle 61.3±3.6): 81.9±0.9
affinity and selectivity for human A2A receptor over other adenosine receptor subtypes [5]: highly selective
selectivity for the mouse A2A over the A3 receptor [2]: 12 fold
Ki [2]: 1.58 ± 0.48 nM
A3/A2A [2]: 12.2
Ki [1]: 19.3 ± 3.3 nM
protection from spinal cord compression injury (mBBB) ([6]; 2 nmol/kg IP, FIG. 2A): no significant protection
protection from compression injury with delayed treatment ([6]; 3 nmol/kg IP, delay 0, 5 or 20 min after SCI, two-way ANOVA, FIG. 9): significant
locomotor protection by agonist combined with antagonist ([6]; 6 nmol/kg ATL313 with equimolar ZM241385, FIG. 2D): Early blockade; also recorded: completely blocked
protection when treatment starts just after compression (onset of reperfusion) ([6]; 6 nmol/kg IP 10-15 seconds after terminating compression, compared with start before compression, FIG. 8): reduces locomotor dysfunction; also recorded: equal protection; also recorded: same reduction in SCI
mBBB score ([6]; 6 nmol/kg, day 42 after compression, same animals as myelin analysis, vehicle 5.0±1.4, FIG. 4): 11.3±0.8
optimal dose to reduce SCI (mBBB locomotor score) ([6]; IP twice daily for 4 days during and following compression, FIG. 2A): 6 nmol/kg
reversal of protection by delay of administration ([6]; delay 20 minutes, FIG. 9 legend): partially
protection from spinal cord compression injury (mBBB) ([6]; dose increased from 6 to 20 nmol/kg IP, FIG. 2A): does not produce additional protection
locomotor function (mBBB score) after spinal cord compression ([6]; 6 nmol/kg): significant and sustained increase; also recorded: improved locomotor function at all time points
protection from contusive injury in Rag1 KO mice compared to Rag1 KO vehicle [7]: no evidence of additional protection

CCNC(=O)[C@H]1O[C@@H](n2cnc3c(N)nc(NCCc4ccc(CCC(=O)O)cc4)nc32)[C@H](O)[C@@H]1O [CGS21680, 2-[4-(2-carboxyethyl)phenethylamino]-5′-N-ethylcarboxamido-adenosine, reference compound]
Ki [1]: 160 ± 20 nM

Nc1nc(NCCc2ccc(O)cc2)nc2nc(-c3ccco3)nn12 [ZM241385, 4-(2-[7-Amino-2-[2-furyl][1,2,4]triazolo[2,3-a][1,3,5]triazin-5-yl-amino]ethyl)phenol, reference compound]
Ki [1]: 16100 nM
reduction of compressive injury with delayed antagonist treatment ([6]; 6 nol/kg IP twice daily for 4 days after delay of 1, 3, 5 or 7 days, FIG. 10): Protection is maintained; also recorded: significant compared to vehicle for all delay periods
locomotor function (mBBB score) after spinal cord compression ([6]; 6 nmol/kg): improvement in locomotor function that was similar to the effect of the agonist
protection from contusive injury in Rag1 KO mice compared to Rag1 KO vehicle [7]: did not significantly improve protection
protection from contusive injury in Rag1 KO mice compared to vehicle ([7]; Rag1 KO mice, compared to vehicle controls, P=0.0015): significant protection
